According to PubChem BioAssay AID248 (DTP/NCI, 2004):
Inconclusive results and toxic doses are left out. Cut-off read from the data, not from the text of the source: active = T/C of 150% or more; inactive = T/C below 125%.

System: L1210 leukemia ip in BDF1 mice, survival T/C
Assay: NCI In Vivo Anticancer Drug Screen. Data for tumor model L1210 Leukemia (intraperitoneal) in B6D2F1 (BDF1) mice
Details: endpoint: mean survival time, higher = longer survival
Summary of the method: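 Read-out is survival time, reported as the treated-group measurement over the vehicle-control measurement.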

[1] = dose: 200.0 mg/kg/injection, schedule: Q04DX003 (ip), vehicle: Klucel (hydroxypropylcellulose) (HPC)
[2] = dose: 400.0 mg/kg/injection, schedule: Q04DX003 (ip), vehicle: Klucel (hydroxypropylcellulose) (HPC)
[3] = dose: 100.0 mg/kg/injection, schedule: Q01DX009 (ip), vehicle: saline with Tween-80
[4] = dose: 200.0 mg/kg/injection, schedule: Q01DX009 (ip), vehicle: saline with Tween-80
[5] = dose: 50.0 mg/kg/injection, schedule: Q01DX009 (ip), vehicle: saline with Tween-80
[6] = dose: 200.0 mg/kg/injection, schedule: Q01DX001 (ip), vehicle: Klucel (hydroxypropylcellulose) (HPC)
[7] = dose: 400.0 mg/kg/injection, schedule: Q01DX001 (ip), vehicle: Klucel (hydroxypropylcellulose) (HPC)
[8] = dose: 100.0 mg/kg/injection, schedule: Q01DX001 (ip), vehicle: carboxymethylcellulose (CMC)
[9] = dose: 200.0 mg/kg/injection, schedule: Q01DX001 (ip), vehicle: carboxymethylcellulose (CMC)
[10] = dose: 400.0 mg/kg/injection, schedule: Q01DX001 (ip), vehicle: carboxymethylcellulose (CMC)
[11] = dose: 100.0 mg/kg/injection, schedule: Q04DX003 (ip), vehicle: saline with Tween-80
[12] = dose: 100.0 mg/kg/injection, schedule: Q01DX001 (ip), vehicle: saline

Measured: T/C

Cc1c2ccncc2cc2c3ccccc3n(CCO)c12
inactive: dose: 9.38 mg/kg/injection, schedule: Q01DX009 (ip), vehicle: Klucel (hydroxypropylcellulose) (HPC) 105 % of control | dose: 18.75 mg/kg/injection, schedule: Q01DX009 (ip), vehicle: Klucel (hydroxypropylcellulose) (HPC) 107 % of control | dose: 18.75 mg/kg/injection, schedule: Q04DX003 (ip), vehicle: Klucel (hydroxypropylcellulose) (HPC) 97 % of control | dose: 37.5 mg/kg/injection, schedule: Q01DX009 (ip), vehicle: Klucel (hydroxypropylcellulose) (HPC) 107 % of control | dose: 37.5 mg/kg/injection, schedule: Q04DX003 (ip), vehicle: Klucel (hydroxypropylcellulose) (HPC) 107 % of control | dose: 75.0 mg/kg/injection, schedule: Q04DX003 (ip), vehicle: Klucel (hydroxypropylcellulose) (HPC) 105 % of control | [1] 98 % of control | [2] 104 % of control

CCCCCCP(=O)(CCCCCC)CCCCCC (tested in a mixture with another compound)
inactive: [3] 100 % of control | [4] 86 % of control

NC(=S=O)c1ccccc1
inactive: [5] 93 % of control | dose: 50.0 mg/kg/injection, schedule: Q01DX009 (ip), vehicle: saline 101 % of control | [3] 97 % of control | dose: 100.0 mg/kg/injection, schedule: Q01DX009 (ip), vehicle: saline 96 % of control | [4] 93 % of control | dose: 200.0 mg/kg/injection, schedule: Q01DX009 (ip), vehicle: saline 104 % of control

Clc1ccc2c(c1)/C(=C/c1cccnc1)c1cc(Cl)cc(Cl)c1-2
inactive: dose: 100.0 mg/kg/injection, schedule: Q01DX009 (ip), vehicle: Klucel (hydroxypropylcellulose) (HPC) 93 % of control | dose: 100.0 mg/kg/injection, schedule: Q04DX003 (ip), vehicle: Klucel (hydroxypropylcellulose) (HPC) 88 % of control | [6] 94 % of control | dose: 200.0 mg/kg/injection, schedule: Q01DX009 (ip), vehicle: Klucel (hydroxypropylcellulose) (HPC) 90 % of control | [1] 95 % of control | [7] 90 % of control | [2] 88 % of control

NC(=O)c1ccc(O)cc1
inactive: [8] 92 % of control | [9] 92 % of control | [10] 89 % of control

S=C(Nc1ccc(Cl)c(Cl)c1)SCc1ccc(Cl)c(Cl)c1
inactive: dose: 15.0 mg/kg/injection, schedule: Q04DX003 (ip), vehicle: saline 97 % of control | dose: 30.0 mg/kg/injection, schedule: Q04DX003 (ip), vehicle: saline 101 % of control | dose: 60.0 mg/kg/injection, schedule: Q04DX003 (ip), vehicle: saline 101 % of control | dose: 100.0 mg/kg/injection, schedule: Q04DX002 (ip), vehicle: saline 88 % of control | dose: 200.0 mg/kg/injection, schedule: Q04DX002 (ip), vehicle: saline 112 % of control | dose: 400.0 mg/kg/injection, schedule: Q04DX002 (ip), vehicle: saline 88 % of control

CN(C)/N=N/c1nc[nH]c1C#N
inactive: [3] 107 % of control | [11] 110 % of control | [4] 115 % of control | dose: 200.0 mg/kg/injection, schedule: Q04DX003 (ip), vehicle: saline with Tween-80 98 % of control | dose: 400.0 mg/kg/injection, schedule: Q04DX003 (ip), vehicle: saline with Tween-80 102 % of control

Cl/C=C/CSc1ccccc1
inactive: [12] 100 % of control | dose: 200.0 mg/kg/injection, schedule: Q01DX001 (ip), vehicle: saline 103 % of control | dose: 400.0 mg/kg/injection, schedule: Q01DX001 (ip), vehicle: saline 100 % of control

C/C(=C/C(=O)O)C(=O)Nc1cccc2c(NC(=O)/C(C)=C/C(=O)O)cccc12
inactive: [8] 95 % of control | [9] 96 % of control | [10] 96 % of control

CC(=O)Nc1nc(C=O)cc(=O)[nH]1
inactive: dose: 100.0 mg/kg/injection, schedule: Q01DX001 (ip), vehicle: Klucel (hydroxypropylcellulose) (HPC) 100 % of control | dose: 100.0 mg/kg/injection, schedule: Q01DX001 (ip), vehicle: other 86 % of control | [6] 104 % of control | [7] 103 % of control | dose: 400.0 mg/kg/injection, schedule: Q01DX001 (ip), vehicle: other 91 % of control

O=C(N/N=C/c1ccc(O)cc1O)C(O)(c1ccccc1)c1ccccc1
inactive: [8] 106 % of control | [9] 106 % of control | [10] 108 % of control

C=C1CCC(c2ccccc2)N(C)C1=O (centres undefined)
inactive: dose: 25.0 mg/kg/injection, schedule: Q01DX001 (ip), vehicle: saline with Tween-80 104 % of control | dose: 50.0 mg/kg/injection, schedule: Q01DX001 (ip), vehicle: saline with Tween-80 101 % of control | dose: 100.0 mg/kg/injection, schedule: Q01DX001 (ip), vehicle: saline with Tween-80 98 % of control | dose: 200.0 mg/kg/injection, schedule: Q01DX001 (ip), vehicle: saline with Tween-80 98 % of control

CC1(C)C=CN(c2ccc(Cl)cc2)C(=O)O1
inactive: dose: 100.0 mg/kg/injection, schedule: Q04DX002 (ip), vehicle: gum acacia 103 % of control | dose: 200.0 mg/kg/injection, schedule: Q04DX002 (ip), vehicle: gum acacia 97 % of control | dose: 400.0 mg/kg/injection, schedule: Q04DX002 (ip), vehicle: gum acacia 87 % of control

OCC[CH2][Sn]([c]1ccccc1)([c]1ccccc1)[c]1ccccc1
inactive: dose: 6.25 mg/kg/injection, schedule: Q04DX002 (ip), vehicle: saline with Tween-80 101 % of control | dose: 12.5 mg/kg/injection, schedule: Q04DX002 (ip), vehicle: saline with Tween-80 101 % of control | dose: 25.0 mg/kg/injection, schedule: Q04DX002 (ip), vehicle: saline with Tween-80 87 % of control | [5] 96 % of control | [3] 96 % of control | [4] 96 % of control

CCC(CC)COC(=O)CI
inactive: dose: 5.0 mg/kg/injection, schedule: Q01DX001 (ip), vehicle: saline 100 % of control | dose: 10.0 mg/kg/injection, schedule: Q01DX001 (ip), vehicle: saline 100 % of control | dose: 20.0 mg/kg/injection, schedule: Q01DX001 (ip), vehicle: saline 100 % of control | dose: 40.0 mg/kg/injection, schedule: Q01DX001 (ip), vehicle: saline 100 % of control | dose: 80.0 mg/kg/injection, schedule: Q01DX001 (ip), vehicle: saline 100 % of control

CC1(C)Oc2c(ccc(O)c2CN2CCCCC2)C2=C1CCCC2
inactive: [12] 89 % of control

ClCC1(CCl)OCCO1
inactive: dose: 75.0 mg/kg/injection, schedule: Q01DX001 (ip), vehicle: carboxymethylcellulose (CMC) 95 % of control | dose: 150.0 mg/kg/injection, schedule: Q01DX001 (ip), vehicle: carboxymethylcellulose (CMC) 104 % of control

NC(N)=NCCCOc1ccc([N+](=O)[O-])cc1
inactive: dose: 25.0 mg/kg/injection, schedule: Q04DX003 (ip), vehicle: saline 96 % of control | dose: 50.0 mg/kg/injection, schedule: Q04DX003 (ip), vehicle: saline 100 % of control | [11] 101 % of control | dose: 100.0 mg/kg/injection, schedule: Q04DX003 (ip), vehicle: saline 94 % of control

CSc1ncc(Br)c(C(=O)O)n1
inactive: [3] 93 % of control | [4] 93 % of control | dose: 400.0 mg/kg/injection, schedule: Q01DX009 (ip), vehicle: saline with Tween-80 94 % of control
